{"source": "patent US9814732B2", "about": "“Ulipristal acetate for prevention and treatment of breast tumors” (LABORATOIRE HRA-PHARMA, priority 2012, dated 2017)", "key": {"hPR-A and hPR-B": {"test_system": "hPR-A and hPR-B", "assay": "MMTV-Luc reporter gene transactivation in HBE cells transfected with hPR-A and/or hPR-B", "assay_type": "cell-based, human", "experimental": "T-47D and MCF-7 cell lines were respectively maintained in RPMI 1640 and in DMEM medium supplemented with 10% fetal calf serum (PAA Laboratory, Les Mureaux, France). […] Normal human breast epithelial cell (HBE) primary cultures were obtained from 20 women (aged 17-50 years). […] HBE cells were maintained in HAM F10 medium (PAA Laboratory, Les Mureaux, France) containing hydrocortisone (5 ng/ml), Triiodo-L-thyronine (6.5 ng/ml), choleratoxin (10 ng/ml), transferrin (5 mg/ml), insulin (0.016 U/ml), epidermal growth factor (10 ng/ml) (Sigma, St Quentin Fallavier, France) and 5% human serum (Etablissement Français du Sang).\nAfter seeding, cells were cultured for 24 h in serum and phenol red free medium. Then treatments were carried out in a phenol red free medium containing 5% dextran-charcoal stripped serum. […] Control cells were treated with ethanol, at 10 1:1000 final ethanol concentration alone as vehicle or E2 (10 nM).\nCells were transfected with reporter gene plasmids containing glucocorticoid and progesterone responsive elements (GRE/PRE): 1) the MMTV-Luc is a Mouse Mammary Tumor Virus Long Terminal Repeat promoter containing one GRE/PRE palindrome and three GRE/PRE hemi-palindromes upstream to firefly luciferase gene in pFC31 vector, 2) the GRELuc contains six copies of GRE/PRE palindrome upstream to firefly luciferase gene in pBL vector. When indicated, HBE cells were transfected with human PR isoforms hPR-A and hPR-B expression plasmids constructed in POP3 vectors. Rous Sarcoma Virus promoter upstream to beta galactosidase gene (pRSV-β-Gal) was transfected in each experiment as control. Transfections were performed according to the manufacturer instructions using Lipofectamine or Lipofectamine LTX Reagents (Invitrogen, Cergy-Pontoise, France) for breast cancer cell lines or HBE cells, respectively. After 24 h of transfection, breast cancer and HBE cells were treated with hormones for 24 h or 48 h, respectively. At the end of the experiment, cells were lysed and luciferase activity was determined using the Luciferase Assay System (Promega, Charbonnières-les-bains, France). Beta galactosidase activity was assessed using the Galacto Star kit (Applied Biosystems, Courtaboeuf, France) to normalize luciferase activity data."}, "[1]": {"assay": "Tolerability and body weight in HBCx-34 tumor-bearing nude mice", "assay_type": "in vivo", "conditions": "UPA 130 mg/kg p.o., 42 days", "protocol": "(§1) Mice were allocated to different groups according to their tumor volume to give homogenous mean and median tumor volume in each treatment arms. Ten mice/group, with HBCx-34 tumors between 75 and 144 mm^3, were randomized according to their tumor volume into experimental groups, and treatments (UPA 130 mg/kg, p.o. or control vehicle) were initiated 33 days post implantation of the tumor for a total duration of 42 days.\nAnimals were weighted biweekly during all the experimental period. Toxicity of the different treatments was determined as body weight loss."}, "[2]": {"test_system": "GR target genes (IEX-1, G0S8, cyclin A, BCL2)", "assay": "qRT-PCR mRNA expression of GR target genes in HBE cells", "assay_type": "cell-based, human", "protocol": "(§2) After seeding, cells were cultured for 24 h in serum and phenol red free medium. Then treatments were carried out in a phenol red free medium containing 5% dextran-charcoal stripped serum. Cells were treated with P or DEX (100 nM), alone or in combination with UPA, RU (1 nM to 1 μM) or CDB-3877 (100 nM). Control cells were treated with ethanol, at […] 1:1000 final ethanol concentration alone as vehicle or E2 (10 nM).\nTotal RNA was extracted using TriZOL Reagent (Invitrogen, Cergy-Pontoise, France).\n2 μg of total RNA was subjected to reverse transcription (RT) using random primers for 1 h at 37° C. 2 μl of RT product was diluted (1:10) and subjected to quantitative PCR using sequence specific primers (300 nM) and Brillant SYBR GREEN QPCR master mix (Fermentas, Saint-Rémy-lès-Chevreuse, France) on an Mx3000P apparatus (Agilent Technologies, Massy, France). Conditions were 1 cycle at 95° C. for 10 min followed by 40 cycles at 95° C. for 30 sec, 60° C. for 1 min and 72° C. for 30 sec. Gene expression values were normalized to the housekeeping gene 36B4. Time of steroid treatment was chosen to get the optimal stimulation for a given gene. ALPL and G0S8 mRNA were analyzed after 6 h of treatment. IEX-1, FASN, and BCL2 were analyzed after 24 h of treatment. Cyclin A mRNA was analyzed after 24 h for GR responses or 48 h for PR responses."}, "HBCx-34 tumors": {"test_system": "HBCx-34 tumors", "assay": "HBCx-34 human mammary ductal carcinoma xenograft tumor growth in nude mice", "assay_type": "in vivo", "conditions": "UPA 130 mg/kg p.o., 42 days", "source_text": "The xenograft model used in this study was HBCx-34. HBCx-34 is a mammary ductal carcinoma with wild type P53, no HER2 overexpression and PR and ERα overexpression. […] HBCx-34 has got no cachectic property.\nHBCx-34 tumors (P14.0.0/2) were transplanted subcutaneously onto 5-10 mice (donor mice, passage (n-1), female athymic nude mice (Hsd:Athymic Nude-Fox1nu), 6- to 9-week-old, Harlan Laboratories (Gannat, France)). When these tumors reached 1000 to 2000 mm3 (between 60 to 78 days), donor mice were sacrificed by cervical dislocation, tumors were aseptically excised and dissected. After removing necrotic areas, tumors were cut into fragments measuring approximately 20 mm3 and transferred for 10 min maximum in sterile DMEM/F12 culture medium, without any additional components, before grafting.\nHealthy mice aged 6 to 9 weeks and weighing at least 20 g were included in the study. Mice were anaesthetized with ketamine/xylazine, and then skin was aseptized with a chlorhexidine solution, incised at the level of the interscapular region, and a 20 mm3 tumor fragment was placed in the subcutaneous tissue. Skin was closed with clips.\nas §1\nTumor volume was evaluated biweekly during all the experimental period. Tumors were collected at the end of treatment, weight and processed for analysis."}, "HBE cells": {"test_system": "HBE cells", "assay": "Tritiated thymidine incorporation (proliferation) in HBE cells", "assay_type": "cell-based, human", "conditions": "96 h", "protocol": "as §2\nAfter 24 h of hormonal treatment, cells were incubated with [methyl-1 3H] thymidine (Perkin Elmer, Courtaboeuf, France) for 48 h or 20 h for KBE or cancer cells, respectively at 37° C. After incubation cells were washed twice with PBS 1× and once with 5% trichloroacetic acid (TCA). Cells were incubated in 5% TCA for 15 min at 4° C. and lysed in NaOH 0.1 N for 30 min at 37° C. The total cell lysate was added to 5 ml of Ecolite scintillation liquid (MP biomedical, Illkirch, France) and radioactivity was counted with a β-counter HIDEX 300SL (ScienceTec, Courtaboeuf, France)."}}}
{"molecule": "CC(=O)O[C@]1(C(C)=O)CCC2C3CCC4=CC(=O)CCC4=C3[C@@H](c3ccc(N(C)C)cc3)C[C@@]21C", "note": "(stereo partly drawn) [UPA, 17[…]-acetoxy-11[…]-[4-N,N-dimethylamino-phenyl)-19-norpregna-4,9-diene-3,20-dione]", "values": [{"measurement": "inhibition of P induced MMTV-Luc transactivation", "setting": "hPR-A and hPR-B; HBE cells co-transfected with hPR-A and hPR-B, P 100 nM, antagonist 1 to 1000 nM", "value": "inhibited P induced MMTV11 Luc transactivation in a dose dependent manner from 1 000 to 10 nM"}, {"measurement": "antagonist performance between PR isoforms (MMTV-Luc)", "setting": "hPR-A and hPR-B; HBE cells transfected with only hPR-A or hPR-B", "value": "No difference with increasing the levels of each PR isoform was seen on UPA antagonist performance"}, {"measurement": "lowest concentration necessary to exert a complete antagonist activity", "setting": "hPR-A and hPR-B; HBE cells, MMTV-Luc, P 100 nM", "value": "A hundred"}, {"measurement": "progestational agonist properties on reporter gene transcription", "setting": "hPR-A and hPR-B; HBE cells, compound alone", "value": "did not exhibit progestational agonist properties"}, {"measurement": "body weight loss", "setting": "[1]", "value": "no significant body weight loss"}, {"measurement": "tolerability of treatment", "setting": "[1]", "value": "well tolerated"}, {"measurement": "treatment related clinical observation", "setting": "[1]", "value": "No treatment related clinical observation"}, {"measurement": "G0S8 mRNA expression", "setting": "[2]; DEX and/or UPA 100 nM, 6 h", "value": "slight and non-significant antagonist effect"}, {"measurement": "BCL2 mRNA expression (GR response)", "setting": "[2]; DEX and/or UPA 100 nM, 24 h", "value": "did not reverse the DEX down-regulation of BCL2 mRNA"}, {"measurement": "IEX-1 mRNA expression", "setting": "[2]; DEX and/or UPA 100 nM, 24 h", "value": "did not antagonize this response"}, {"measurement": "cyclin A mRNA expression (GR response)", "setting": "[2]; DEX and/or UPA 100 nM, 24 h", "value": "partially inhibited DEX effect on cyclin A mRNA expression"}, {"measurement": "glucocorticoid agonist activity on GR target genes", "setting": "[2]; UPA 100 nM alone", "value": "did not display any glucocorticoid agonist activity"}, {"measurement": "ratio of TV in treated vs. control group (T/C)", "setting": "HBCx-34 tumors", "value": 53, "unit": "%"}, {"measurement": "increase in mean tumor volume (TV) at the end of treatment", "setting": "HBCx-34 tumors; control 4.63-fold", "value": 2.17, "unit": "fold"}, {"measurement": "mean TV at sacrifice", "setting": "HBCx-34 tumors; control 625.0±108.6 mm^3", "value": "332.0±61.0", "unit": "mm^3"}, {"measurement": "cell proliferation ([3H] thymidine incorporation), compound alone", "setting": "HBE cells; 100 nM", "value": "had no effect on proliferation"}, {"measurement": "effect of UPA on DEX-mediated proliferation change", "setting": "HBE cells; DEX 100 nM + UPA 100 nM", "value": "inhibited the strong proliferative activity induced by DEX"}, {"measurement": "effect of UPA on P-mediated proliferation change", "setting": "HBE cells; P 100 nM + UPA 100 nM", "value": "did not inhibit the anti-proliferative effect induced by P"}]}
